Measured values: US20100274050A1, “SOLID MILNACIPRAN AND PROCESS FOR THE PREPARATION OF THE SAME” (Glenmark Generics Limited, priority 2009, published 2010)
Where a name gives a salt, the structure may show the parent alone.

Assay: Bulk density / tapped density (tapped density tester ETD-1020)
Format: physicochemical
Text: The bulk density used tapped density tester dual-platform ETD-1020 (Electrolab). System specifications. Speed: nominal rate of 300 taps per minute, Accuracy: Actual setting ±1 tap, Drop height: 14±2 mm. Platform rotation: 5-15 rotations/minute.

Q: With CCN(CC)C(=O)C1(c2ccccc2)CC1CN (stereo not shown) [milnacipran hydrochloride, Milnacipran hydrochloride] as the compound, how does the Tapped density read?
A: The Tapped density was “Tapped density = 0.43 g/ml”.
